What was measured:
Format in all cases: cell-based
A549 (lung carcinoma) = assay: XTT cytotoxicity assay (Pharma Seed); settings: Homo sapiens, 48 hours, 20, 10, 5, 1 μM, assay medium 1% FBS
Experimental: (§1) In this study, the cytotoxicity of several compounds of the present invention on lung and pancreatic cancer cell was evaluated.
(§2) A549 (lung carcinoma) culture medium: F12-K, supplemented with 10% FBS (heat inactivated), 2 mM L-glutamine, and 1% of Pen/Strep/Amp solution. A549 assay medium: F12-K, supplemented with 1% FBS (heat inactivated), 2 mM L-glutamine, and 1% of Pen/Strep/Amp solution.
(§3) Each of the tested compounds was dissolved in DMSO to reach a stock concentration of 20 mM (and stored at −15° C.-−25° C. until use. Compound Ia28 (MW 484 g/mol, 3.05 mg total) was dissolved in 0.315 mL; compound Ia9 (MW 484 g/mol, 2.33 mg total) was dissolved in 0.241 mL; and compound Ia6 (MW 428.3 g/mol, 2.25 mg total) was dissolved in 0.262 mL.
(§4) On the day of incubation with the cells, each compound was diluted in DMSO to reach 2 mM, 1 mM, 0.5 mM, 0.1 mM stock concentrations (1:10, 1:20, 1:40 and 1:200), and each of these stocks was further diluted in assay medium 1:100 for final concentration of 20 μM, 10 μM, 5 μM, and 1 μM.
(§5) Part 1—cell number calibration. PANC-1 and A549 cells were each plated in a 96 well plate, in their culture medium, at various cell concentrations per well, in triplicates, and were allowed to attach for 24 hours. Thereafter, culture medium was discarded, assay medium was added, and the cells were incubated for additional 72 hours. Finally, assay medium was discarded, and fresh culture medium was added to the cells along with 50 μl XTT reagent. The OD was measured every two hours for 6 hours (three times).
(§6) The highest cells number/well were chosen for part 2 as follows: PANC-1 at 7,500 cells per well, A549 at 5000 cells per well.
Part 2—cells incubation with tested compounds. PANC-1 and A549 cells were plated in a 96 well plate, in their culture medium, at the optimal cell concentration according to the results from the previous section and were allowed to attach for 24 hours. […] The OD was measured at the optimal time point according to the results in the previous section.

[1] = test system: PANC-1 (pancreatic carcinoma); assay: XTT cytotoxicity assay (Pharma Seed); settings: Homo sapiens, 48 hours, 20, 10, 5, 1 μM, assay medium 1% FBS
Experimental: as §1
as §2, with “PANC-1 (pancreatic” for “A549 (lung”, “DMEM (High Glucose),” for “F12-K,”, “PANC-1” for “A549”
as §3, §4, §5, §6
Part 2—cells incubation with tested compounds. PANC-1 and A549 cells were plated in a 96 well plate, in their culture medium, at the optimal cell concentration according to the results from the previous section and were allowed to attach for 24 hours. Thereafter, the culture medium was discarded, and fresh assay medium was added to the cells, supplemented with elevating compound concentrations. Triton 0.1% was used as positive control for cell death. The cells were incubated for another 48 hours (TBD upon microscopic observation). Finally, fresh culture medium was added to the cells along with 50 μl XTT reagent. The OD was measured at the optimal time point according to the results in the previous section.

[2] = test system: human peripheral blood mononuclear cells (PBMCs); assay: Cell proliferation of LPS-challenged PBMCs by CellTiter-Glo (CTG); settings: for CTG signal: human PBMCs, 72 h (LPS control 84.50); for effect on cell proliferation: LPS-treated human PBMCs, CTG
Text: This study was aimed to test the effect of 12 compounds (THCA, Ia1, Ia5, Ia6, Ia9, Ia11, Ia15, Ia17, Ia24, Ia25, Ia27, and Ia28) on human peripheral blood mononuclear cells (PBMCs) challenged by lipopolysaccharide (LPS) through monitoring multiple inflammatory endpoints.
Blood samples were collected from healthy volunteers according to protocols that have been reviewed and approved by the Chempartner Institutional Ethic Committee (IEC) upon signing an Informed Consent Form (ICF).
Fresh PBMCs were isolated and seeded into 96-well plate, and diluted solutions of the tested compounds and 0.1 μg/mL LPS were then added (in triplicates). To serve as control, 3 wells with PBMCs only, 3 wells with 0.1 μg/mL LPS, and 2 wells with 1 μg/mL dexamethasone (Dex) and 0.1 μg/mL LPS were included. After 72 hours incubation, supernatant was collected for tumor necrosis factor-α (TNF-α) measurement by enzyme-linked immunosorbent assay (ELISA), and cell pellets were harvested for cell proliferation measurement by CellTiter-Glo® Luminescent Cell Viability Assay (CTG).
The human blood sample from an individual donor was diluted by the same volume of sterile phosphate buffered solution (PBS) and mixed sufficiently by gentle shake. 15 mL Lymphoprep™ medium was transferred into a new 50 mL centrifuge tube, and the diluted blood sample (30 mL) was then carefully added onto the surface of the medium, which consequently contained Ficoll 400 and blood in a volume ratio of 1:2. Four interfaces were observed after centrifugation, which are, from top to bottom, layers of plasma, mononuclear cells, Ficoll medium, and red blood cells (RBCs). Plasma was absorbed, and mononuclear cells were then transferred into another new sterile centrifuge tube. Then, sterile PBS buffer was added into the collected PBMCs for washing, at a volume ratio of 3:1. PBMCs were washed with 5-10 mL PBS twice before cell counting with cytometer. Cells were centrifuged at 350×g, for 10 min, at 20° C. with the acceleration (5) and deceleration (5) settings during the centrifugation. The cells were resuspended with RPMI 1640 complete medium (containing 10% FBS) for assay, and the density was adjusted with RPMI 1640 complete medium to the final concentration of 2E6 cells/mL. Cells suspension of the PBMCs (100 μL/well) were seeded into 96-well plate (#3903).
Diluted solutions of the tested compounds were prepared with RPMI 1640 complete medium according to the following layout. Compounds were prepared at 5-fold of concentration (50 μM), and then were diluted to the working concentration of 10 μM with RPMI 1640 complete medium and made 10-fold serially dilution (2 points). The diluted compounds (50 μL/well) were added to the indicated wells, and the plate was incubated at 37° C., 5% CO2, for 72 h.
LPS (0.1 μg/mL, 100 μL) was added into each well. Dex (1 μg/mL) was included as a positive control. Plate was incubated at 37° C., 5% CO2 for 72 h. Supernatant was collected to measure TNF-α by ELISA. Cell proliferation was detected by CTG.

Row | SMILES | IC50 (A549 (lung carcinoma)) | IC50 [1] | CTG signal ([2]; compound 1 μM + 0.1 μg/mL LPS) | CTG signal ([2]; compound 10 μM + 0.1 μg/mL LPS) | effect on cell proliferation [2]
1 | C=C(C)[C@@H]1CCC(C)=C[C@H]1c1c(O)cc(CCCCC)c(C(=O)NCCCN2CCOCC2)c1O [Ia28, (1′R,2′R)-2,6-dihydroxy-5′-methyl-N-(3-morpholinopropyl)-4-pentyl-2′-(prop-1-en-2-yl)-1′,2′,3′,4′-tetrahydro-[1,1′-biphenyl]-3-carboxamide] | 11 µM | 19 µM | 76.24 10^4 | 72.61 10^4 | 
2 | CCCCCc1cc2c(c(O)c1C(=O)NCCCN1CCOCC1)[C@@H]1C=C(C)CC[C@H]1C(C)(C)O2 [Ia9, (6aR,0aR)-1-hydroxy-6,6,9-trimethyl-N-(3-morpholinopropyl)-3-pentyl-6a,7,8,10a-tetrahydro-6H-benzo[c]chromene-2-carboxamide] | 7.8 µM | 11.4 µM | 77.55 10^4 | 23.31 10^4 | inhibition of cell proliferation
3 | CCCCCc1cc2c(c(O)c1C(=O)O)[C@@H]1C=C(C)CC[C@H]1C(C)(C)O2 [THCA, tetrahydrocannabinolic acid, reference compound] |  |  | 74.89 10^4 | 75.54 10^4 | 
4 | CCCCCc1cc2c(c(O)c1C(=O)NCCN(C)C)[C@@H]1C=C(C)CC[C@H]1C(C)(C)O2 [Ia6, (6aR,0aR)—N-(2-(dimethylamino)ethyl)-1-hydroxy-6,6,9-trimethyl-3-pentyl-6a,7,8,10a-tetrahydro-6H-benzo[c]chromene-2-carboxamide] | 5.2 µM | 9.4 µM | 80.67 10^4 | 37.67 10^4 | inhibition of cell proliferation
